pEC50, pKi: −log10 of the molar value. Entries after “also recorded” stand apart in the source; their conditions may differ. Like-named read-outs stand apart in the source and are kept apart here.
Assays:
[1] = system: Human promyelocytic leukemia (HL60) cells; assay: HL-60 differentiation (nitro blue tetrazolium reduction); assay type: cell-based; conditions: for potency on HL-60 cell differentiation compared to 1,25(OH)2D3, in words: HL-60 cells; for pEC50: HL60 cells, four days of treatment, read-out: EC50, ability to promote HL60 differentiation
Description: Serial dilutions were prepared so that a range of drug concentrations could be tested without changing the final concentration of ethanol (≦0.2%) present in the cell cultures.
Human promyelocytic leukemia (HL60) cells were grown in RPMI-1640 medium containing 10% fetal bovine serum. The cells were incubated at 37° C. in the presence of 5% CO2.
HL60 cells were plated at 1.2×10^5 cells/ml. Eighteen hours after plating, cells in duplicate were treated with drug. Four days later, the cells were harvested and a nitro blue tetrazolium reduction assay was performed (Collins et al., 1979; J. Exp. Med. 149:969-974). The percentage of differentiated cells was determined by counting a total of 200 cells and recording the number that contained intracellular black-blue formazan deposits. Verification of differentiation to monocytic cells was determined by measuring phagocytic activity (data not shown).

[2] = system: 24-hydroxylase (24Ohase) gene promoter; assay: In vitro transcription assay, luciferase reporter in ROS 17/2.8 (bone) cells; assay type: cell-based; conditions: for pEC50: ROS 17/2.8 cells, 24-hydroxylase promoter-luciferase, sixteen hours after dosing, read-out: EC50, transcriptional activity in bone cells; for potency relative to 1,25(OH)2D3 in increasing transcription of the 24-hydroxylase gene: bone cells, fold more potent than 1,25(OH)2D3
Description: Transcription activity was measured in ROS 17/2.8 (bone) cells that were stably transfected with a 24-hydroxylase (24Ohase) gene promoter upstream of a luciferase reporter gene (Arbour et al., 1998). Cells were given a range of doses. Sixteen hours after dosing the cells were harvested and luciferase activities were measured using a luminometer. RLU=relative luciferase units.

[3] = Bone calcium mobilization (serum calcium) in vitamin D-deficient rats; assay type: in vivo, rat; conditions: for mobilization of bone calcium at 780 pmol/day: 780 pmol/day for 4 consecutive days; for mobilization of bone calcium at 780 pmol/day / bone calcium mobilization activity (serum calcium), in words: 0.02% Ca diet; for bone calcium mobilization activity (serum calcium), in words: dosages tested; for potency relative to the native hormone in releasing bone calcium stores: low calcium diet (0.02%), four consecutive ip doses
Description: (§1) Male, weanling Sprague-Dawley rats were placed on Diet 11 (Suda et al, J. Nutr. 100:1049, 1970) (0.47% Ca)+vitamins AEK for one week followed by Diet 11 (0.02% Ca)+vitamins AEK for 3 weeks. The rats were then switched to the same diet containing 0.47% Ca for one week followed by two weeks on the same diet containing 0.02% Ca. Dose administration began during the last week on 0.02% calcium diet. Four consecutive ip doses were given approximately 24 hours apart. Twenty-four hours after the last dose, blood was collected from the severed neck and the concentration of serum calcium determined by atomic absorption spectrometry as a measure of bone calcium mobilization. The first 10 cm of the intestine was also collected for intestinal calcium transport analysis using the everted gut sac method.

[4] = Intestinal calcium transport, everted gut sac method, in vitamin D-deficient rats; assay type: in vivo, rat; conditions: compared to 1,25(OH)2D3
Description: as §1

[5] = biological target: T1, full-length recombinant rat vitamin D receptor (Rattus norvegicus, UniProt P13053)
T1 sequence (P13053 1-423): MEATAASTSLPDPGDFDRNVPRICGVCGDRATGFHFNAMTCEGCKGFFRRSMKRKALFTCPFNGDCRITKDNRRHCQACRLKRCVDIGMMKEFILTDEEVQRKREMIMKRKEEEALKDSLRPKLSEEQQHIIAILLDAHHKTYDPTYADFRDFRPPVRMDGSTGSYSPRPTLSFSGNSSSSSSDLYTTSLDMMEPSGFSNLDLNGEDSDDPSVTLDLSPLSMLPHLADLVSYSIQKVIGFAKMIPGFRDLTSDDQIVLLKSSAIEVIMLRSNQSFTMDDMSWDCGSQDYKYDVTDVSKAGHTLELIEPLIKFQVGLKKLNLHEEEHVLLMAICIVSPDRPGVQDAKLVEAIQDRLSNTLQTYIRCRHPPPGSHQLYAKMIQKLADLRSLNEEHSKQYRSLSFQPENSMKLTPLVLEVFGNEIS
Description: (§2) Full-length recombinant rat receptor was expressed in E. coli BL21 (DE3) Codon Plus RIL cells and purified to homogeneity using two different column chromatography systems. The first system was a nickel affinity resin that utilizes the C-terminal histidine tag on this protein. The protein that was eluted from this resin was further purified using ion exchange chromatography (S-Sepharose Fast Flow). Aliquots of the purified protein were quick frozen in liquid nitrogen and stored at −80° C. until use. For use in binding assays, the protein was diluted in TEDK50 (50 mM Tris, 1.5 mM EDTA, pH7.4, 5 mM DTT, 150 mM KCl) with 0.1% Chaps detergent. The receptor protein and ligand concentration was optimized such that no more than 20% of the added radiolabeled ligand was bound to the receptor.
(§3) Radiolabeled and unlabeled ligands were added to 100 mcl of the diluted protein at a final ethanol concentration of ≦10%, mixed and incubated overnight on ice to reach binding equilibrium. The following day, 100 mcl of hydroxylapatite slurry (50%) was added to each tube and mixed at 10-minute intervals for 30 minutes. The hydroxylapaptite was collected by centrifugation and then washed three times with Tris-EDTA buffer (50 mM Tris, 1.5 mM EDTA, pH 7.4) containing 0.5% Titron X-100. After the final wash, the pellets were transferred to scintillation vials containing 4 ml of Biosafe II scintillation cocktail, mixed and placed in a scintillation counter. Total binding was determined from the tubes containing only radiolabeled ligand.

[6] = biological target: T1, full-length recombinant rat vitamin D receptor; assay: biochemical
Description: as §2, §3

Compound: C=C1/C(=C\C=C2/CCC[C@]3(C)[C@@H]([C@@H](C)CCCC(C)(C)O)CC[C@@H]23)C[C@@H](O)C(=C)[C@@H]1O [2EG-S, (20S)-1α,25-dihydroxy-2-methylene-vitamin D3]
- potency on HL-60 cell differentiation compared to 1,25(OH)2D3, in words [1]: more potent than 1,25(OH)2D3
- pEC50 ([1]; Homo sapiens, HL-60, 96 h): 10.22
- pEC50 [2]: 11.30
- potency relative to 1,25(OH)2D3 in increasing transcription of the 24-hydroxylase gene [2]: about 40 times
- mobilization of bone calcium at 780 pmol/day [3]: significant mobilization of bone calcium
- bone calcium mobilization activity (serum calcium), in words [3]: more potent than the native hormone
- potency relative to the native hormone in releasing bone calcium stores [3]: at least 10 times
- intestinal calcium transport activity, in words [4]: more potent than 1,25(OH)2D3; also recorded: very significant activity
- binding affinity to the receptor compared to the standard 1,25-(OH)2D3, in words [5]: about the same affinity
- pKi [6]: 10.00

Compound: C=C1/C(=C\C=C2/CCC[C@]3(C)[C@@H]([C@H](C)CCCC(C)(C)O)CC[C@@H]23)C[C@@H](O)C[C@@H]1O [1α,25-dihydroxyvitamin D3, reference compound]
- pEC50 [1]: 8.52
- pEC50 [2]: 9.70
- bone calcium mobilization activity (serum calcium), in words [3]: increased serum calcium levels

Compound: C=C1/C(=C\C=C2/CCC[C@]3(C)[C@@H]([C@H](C)CCCC(C)(C)O)CC[C@@H]23)C[C@@H](O)C(=C)[C@@H]1O [2EG-R, (20R)-1α,25-dihydroxy-2-methylene-vitamin D3]
- pEC50 ([1]; Homo sapiens, HL-60, 96 h): 8.15
- pEC50 [2]: 10.52
- potency relative to 1,25(OH)2D3 in increasing transcription of the 24-hydroxylase gene [2]: about 10 times
- mobilization of bone calcium at 780 pmol/day [3]: significant mobilization of bone calcium
- bone calcium mobilization activity (serum calcium), in words [3]: more potent than the native hormone
- potency relative to the native hormone in releasing bone calcium stores [3]: at least 10 times
- intestinal calcium transport activity, in words [4]: more potent than 1,25(OH)2D3; also recorded: very significant activity
- binding affinity to the receptor compared to the standard 1,25-(OH)2D3, in words [5]: about the same affinity
- pKi [6]: 10.22

Compound: C=C1/C(=C/C=C2\CCC[C@]3(C)[C@@H]([C@@H](C)CCCC(C)(C)O)CC[C@@H]23)C[C@@H](O)C(=C)[C@@H]1O [T-2EG-S, (5E)-(20S)-1α,25-dihydroxy-2-methylene-vitamin D3]
- potency on HL-60 cell differentiation compared to 1,25(OH)2D3, in words [1]: more potent than 1,25(OH)2D3
- pEC50 ([1]; Homo sapiens, HL-60, 96 h): 9.52
- potency relative to 1,25(OH)2D3 in increasing transcription of the 24-hydroxylase gene [2]: about 10 times
- mobilization of bone calcium at 780 pmol/day [3]: significant mobilization of bone calcium
- bone calcium mobilization activity (serum calcium), in words [3]: more potent than the native hormone
- potency relative to the native hormone in releasing bone calcium stores [3]: at least 10 times
- intestinal calcium transport activity, in words [4]: about the same potency as 1,25(OH)2D3; also recorded: very significant activity
- binding affinity to the receptor compared to the standard 1,25-(OH)2D3, in words [5]: about the same affinity
- pKi [6]: 10.00

Reference: patent US8410080B1, “2-methylene-vitamin D analogs and their uses” (Wisconsin Alumni Research Foundation, priority 2011, dated 2013)
